Data on 7 molecules can be found in patent US5612378A, “Bis-arylsulfonylaminobenzamide derivatives and the use thereof as factor Xa inhibitors” (priority 1995, dated 1997).

Assay [1] addresses T1, Factor Xa (Homo sapiens, UniProt P00742).
T1 construct: purchased Enzyme Research Laboratories, Inc
As to the kind of experiment: In vitro inhibition of purified human factor Xa (hydrolysis of Bz-Ile-Glu-Gly-Arg-pNa). The class given is biochemical. To be noted: purified human enzyme, [Factor Xa]=10 nM, [Bz-Ile-Glu-Gly-Arg-pNa]=26 μM, pH 7.5, 37° C. On the procedure:
The ability of the compounds of the present invention to act as inhibitors of thrombin, factor Xa and plasmin catalytic activity was assessed by determining the concentration which inhibited enzyme activity by 50% using purified human enzymes.
All assays are based on the ability of the test compound to inhibit the hydrolysis of a peptide p-nitroanilide substrate. In a typical experiment, appropriate substrate is prepared in DMSO, and diluted into an assay buffer consisting of 50mM HEPES and 130 mM NaCl at a pH of 7.5. The final concentration for each of the substrates is listed below. […] Test compounds are prepared as 1 mg/ml solutions in DMSO, and three additional 10-fold dilutions in DMSO are prepared. Enzyme solutions are prepared at the concentrations listed below in assay buffer.
(§1) Reactions are initiated by the addition of a 20 μL aliquot of enzyme, and the absorbance increase at 405 nm is recorded for 15 minutes. Data corresponding to less than 10% of the total substrate hydrolysis is used in the calculations. The ratio of the velocity (rate of the change in absorbance as a function of time) for a sample containing no inhibitor is divided by the velocity of a sample containing inhibitor, and is plotted as a function of inhibitor concentration. The inverse of the slope is the concentration of inhibitor which produces a 50% decrease in activity of the enzyme. This concentration is referred to as the IC50.
Factor Xa activity was assessed as the ability to hydrolyse the substrate Bz-Ile-Glu-Gly-Arg-pNa, and was obtained from Sigma. […] Final DMSO concentration was 0.3%.

Assay [2] has as its target human α-thrombin (Homo sapiens, UniProt P00734). Briefly: In vitro inhibition of purified human thrombin (hydrolysis of Bz-Phe-Val-Arg-pNa). The class given is biochemical. Particulars: inhibitor at 6 μM, [thrombin]=36 nM, [Bz-Phe-Val-Arg-pNa]=66 μM, pH 7.5, 37° C. The protocol: The ability of the compounds of the present invention to act as inhibitors of thrombin, factor Xa and plasmin catalytic activity was assessed by determining the concentration which inhibited enzyme activity by 50% using purified human enzymes. The concentration of added inhibitor that caused a 50% decrease in the initial rate of hydrolysis was defined as the IC50 value.
All assays are based on the ability of the test compound to inhibit the hydrolysis of a peptide p-nitroanilide substrate. In a typical experiment, appropriate substrate is prepared in DMSO, and diluted into an assay buffer consisting of 50mM HEPES and 130 mM NaCl at a pH of 7.5. The final concentration for each of the substrates is listed below. All substrate concentrations are at least 10 fold lower than Km to insure inhibition is competitive. Test compounds are prepared as 1 mg/ml solutions in DMSO, and three additional 10-fold dilutions in DMSO are prepared. Enzyme solutions are prepared at the concentrations listed below in assay buffer.
as §1, with “In a typical IC50 determination, into each well of a 96 well plate is pipetted 280 uL of substrate solution, 10 μL of inhibitor solution, and the plate is allowed to thermally equilibrate at 37° C. in a Molecular Devices Plate Reader for at least 10 minutes. Reactions” for “Reactions”
Thrombin activity was assessed as the ability to hydrolyse the substrate N-benzoyl-Phe-Val-Arg-p-nitroanilide (Bz-Phe-Val-Arg-pNa), and was obtained from Sigma Chemical Company (St. Louis, Mo.). Substrate solutions were prepared at a concentration of 60 μM (60 μM<<Km =1.2 mM) in assay buffer. Final DMSO concentration was 0.3%. […] Final reagent concentrations were: [thrombin]=36 nM, [Bz-Phe-Val-Arg-pNa]=66 μM, [inhibitor]=60 to 0.06 μM.

Assay [3] relates to smooth muscle cell. To be noted: U.S. Pat. No. 5,385,885; cited from earlier work.
For assay [4] the following is noted: given as adjuncts to thrombolysis; cited from earlier work.
For assay [5], the system named is experimental restenosis. Particulars: in vivo; cited from earlier work.
The subject of assay [6] is factor Xa. Particulars: cited from earlier work.

T1 sequence (P00742 235-488 limits assumed): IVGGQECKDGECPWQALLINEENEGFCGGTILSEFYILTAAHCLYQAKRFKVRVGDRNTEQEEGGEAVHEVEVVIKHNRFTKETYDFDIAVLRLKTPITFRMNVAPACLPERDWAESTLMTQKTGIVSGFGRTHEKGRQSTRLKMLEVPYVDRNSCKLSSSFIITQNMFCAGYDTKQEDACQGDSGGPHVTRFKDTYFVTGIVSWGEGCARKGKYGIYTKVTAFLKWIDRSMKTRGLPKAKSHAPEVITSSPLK
T1 sequence (P00742 41-179 partner limits assumed): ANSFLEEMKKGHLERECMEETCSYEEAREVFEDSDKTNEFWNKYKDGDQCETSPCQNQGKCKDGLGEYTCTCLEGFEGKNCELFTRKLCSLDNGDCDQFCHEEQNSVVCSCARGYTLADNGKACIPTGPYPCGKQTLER

One may read the IC50 as the concentration that gives 50% inhibition. As a reminder, the inhibition is the share of the control response that was lost under treatment. Read a low inhibition as a response near the control. Turning to `O=C(NCCCCCNC(=O)c1cccc(NS(=O)(=O)c2ccc3ccccc3c2)c1)c1cccc(NS(=O)(=O)c2ccc3ccccc3c2)c1` [Example 4, 1,5-di[3-(2-naphthalenylsulfonylamino)benzamido]pentane], the IC50 in assay [1] turned out to be 3000 nM. Also, in assay [2], the inhibition at 6 µM turned out to be 0%.

`O=C(NCCCCCCCCNC(=O)c1cccc(NS(=O)(=O)c2ccc3ccccc3c2)c1)c1cccc(NS(=O)(=O)c2ccc3ccccc3c2)c1` [Example 5, 1,8-di[3-(2-naphthalenylsulfonylamino)benzamido]octane] displayed a concentration for half-maximal inhibition (IC50) in assay [1] of 2100 nM. In addition, the inhibition at 6 µM in assay [2] was 20%.

In assay [1], `O=C(NCCCN1CCN(CCCNC(=O)c2cccc(NS(=O)(=O)c3ccc4ccccc4c3)c2)CC1)c1cccc(NS(=O)(=O)c2ccc3ccccc3c2)c1` [Example 6, 1,4-di-[3-(2-naphthalenylsulfonylamino)benzamidopropyl]piperazine] yielded an IC50 of 5200 nM. In addition, the inhibition at 6 µM in assay [2] was found to be 0%.

Molecule `O=C(NCc1cccc(CNC(=O)c2cccc(NS(=O)(=O)c3ccc4ccccc4c3)c2)c1)c1cccc(NS(=O)(=O)c2ccc3ccccc3c2)c1` [Example 7, 1,3-di-[3-(2-naphthalenylsulfonylamino)benzamidomethyl]benzene] yielded a half-inhibitory concentration (IC50) in assay [1] of 2400 nM. Besides, the inhibition at 6 µM in assay [2] amounted to 20%.

As to “TAP: soft tick derived protein TAP (tick anticoagulant peptide) (YNRLCIKPRDWIDECDSNEGGERAYFRNGKGGCDSFWICPEDHTGADYYSSYRDCFNACI; UniProt P17726 1-60, looked up)”, the “smooth muscle cell proliferation inhibitory activity” value in assay [3] was “smooth muscle cell proliferation inhibitory activity”. In addition, the “clot lysis and reocclusion” value in assay [4] was “accelerated clot lysis and prevented reocclusion”. Moreover, the “reduction of experimental restenosis” value in assay [5] is on record as “reduce experimental restenosis”.

As to “ecotin: The peptide ecotin is another selective, reversible, tight-binding inhibitor of factor Xa”, the “inhibition of factor Xa” value in assay [6] is “selective, reversible, tight-binding inhibitor of factor Xa”.

B1: antistasin: leech-derived, 119-amino acid protein antistasin (protein, UniProt P15358 18-136, looked up)
Antistasin: QGPFGPGCEEAGCPEGSACNIITDRCTCSGVRCRMHCPHGFQRSRYGCEFCKCRLEPMKATCDISECPEGMMCSRLTNKCDCKIDINCRKTCPNGLKRDKLGCEYCECRPKRKLIPRLS
On to B1, for which, in assay [3], the “smooth muscle cell proliferation inhibitory activity” value is reported as “smooth muscle cell proliferation inhibitory activity”. For the same molecule, in assay [4], the “clot lysis and reocclusion” value is “accelerated clot lysis and prevented reocclusion”. In addition, in assay [5], the “reduction of experimental restenosis” value is given as “reduce experimental restenosis”.
